Values of other authors as cited in patent publication US8221990B2, “Screening GPR12 receptor for substances having Nesfatin-1-like action, or which regulate Nesfatin-1 action” (Teijin Pharma Limited, priority 2007, dated 2012).

Target: T1, GPR12 (Homo sapiens, UniProt P47775)
T1 sequence (P47775 1-334): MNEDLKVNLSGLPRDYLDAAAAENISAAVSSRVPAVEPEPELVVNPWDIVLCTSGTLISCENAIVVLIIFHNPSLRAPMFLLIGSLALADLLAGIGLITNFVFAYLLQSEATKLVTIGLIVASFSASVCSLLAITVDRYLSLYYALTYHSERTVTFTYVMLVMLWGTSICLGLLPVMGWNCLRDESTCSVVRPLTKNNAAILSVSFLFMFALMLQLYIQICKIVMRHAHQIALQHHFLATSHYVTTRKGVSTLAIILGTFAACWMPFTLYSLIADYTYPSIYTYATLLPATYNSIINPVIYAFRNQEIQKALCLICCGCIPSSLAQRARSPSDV
Conditions: cells in which a GPR12 gene is introduced and expressed; cited from earlier work

SMILES: CCCCCCCCCCCCC/C=C/[C@@H](O)[C@@H](N)COP(=O)(O)O [S1P, sphingosine 1-phosphate]
- cytoplasmic calcium ion concentration: increase in cytoplasmic calcium ion concentration occurs

SMILES: CCCCCCCCCCCCC/C=C/[C@@H](O)[C@@H](N)COP(=O)([O-])OCC[N+](C)(C)C [SPC, sphingosylphosphorylcholine]
- cytoplasmic calcium ion concentration: increase in cytoplasmic calcium ion concentration occurs
